Measured values published in ChEMBL document CHEMBL1150668, “Antimicrobial resveratrol tetramers from the stem bark of Vatica oblongifoliassp. oblongifolia” (2002).
In brackets after ≈: the same amount, converted by molar mass.

Experiments:
[1] = test system: Mycolicibacterium smegmatis; assay: Antimicrobial activity against Mycobacterium smegmatis by microdilution method; format: functional
Staphylococcus aureus = assay: Antimicrobial activity against methicillin-resistant Staphylococcus aureus by microdilution method; format: functional

Row | Compound | MIC [1] [µg/mL] | MIC (Staphylococcus aureus) [µg/mL]
1 | Oc1ccc([C@H]2c3c(O)cc(O)cc3[C@@H]3c4c(cc(O)cc4[C@H]2[C@H]2c4cc(O)cc5c4[C@@H](c4cc(O)cc(O)c4[C@@H]2c2ccc(O)cc2)[C@H](c2ccc(O)cc2)O5)O[C@H]3c2ccc(O)cc2)cc1 [ISOHOPEAPHENOL A] | > 100 | > 100
2 | Oc1ccc([C@@H]2c3c(O)cc(O)cc3[C@@H]3c4c(cc(O)cc4[C@H]2[C@H]2c4cc(O)cc5c4[C@@H](c4cc(O)cc(O)c4[C@@H]2c2ccc(O)cc2)[C@H](c2ccc(O)cc2)O5)O[C@H]3c2ccc(O)cc2)cc1 [HOPEAPHENOL A] | 50 (≈ 55.1 µM) | 100 (≈ 110 µM)
3 | Oc1ccc([C@@H]2c3c(O)cc(O)cc3[C@@H]3c4c(cc(O)c5c4[C@@H]2[C@H](c2ccc(O)cc2)[C@H]5c2cc(O)cc4c2[C@H](c2cc(O)cc(O)c2)[C@@H](c2ccc(O)cc2)O4)O[C@H]3c2ccc(O)cc2)cc1 [VATICAPHENOL A] | 25 (≈ 27.6 µM) | 50 (≈ 55.1 µM)
4 | CN[C@H](CC(C)C)C(=O)N[C@H]1C(=O)N[C@@H](CC(N)=O)C(=O)N[C@H]2C(=O)N[C@H]3C(=O)N[C@H](C(=O)N[C@H](C(=O)O)c4cc(O)cc(O)c4-c4cc3ccc4O)[C@H](O)c3ccc(c(Cl)c3)Oc3cc2cc(c3O[C@@H]2O[C@H](CO)[C@@H](O)[C@H](O)[C@H]2O[C@H]2C[C@](C)(N)[C@H](O)[C@H](C)O2)Oc2ccc(cc2Cl)[C@H]1O [VANCOMYCIN] |  | 0.8 (≈ 0.552 µM)
5 | NNC(=O)c1ccncc1 [ISONIAZID] | 0.8 (≈ 5.83 µM) | 
